Laboratory results as given in patent US4336389A, “2-Substituted-4-aryl-5-thiazolecarboxylic acids and their derivatives as safening agents” (Monsanto Company, priority 1978, dated 1982).

How the values were obtained:
Format in all cases: in vivo
rice [1] = test: Inhibition of rice, safening agent and butachlor applied to soil surface, flooded pots (Example 18, Table IV); conditions: ~21 days, mean of two replicates
Protocol: (§1) 5.08 cm. of a good grade of top soil is placed in a 7.62 cm. deep plastic pot. A predetermined number of barnyard grass seeds are applied to the soil surface. A measured quantity of the safening agent and butachlor dispersed or dissolved in a suitable carrier is applied to the soil surface. Pre-soaked rice is seeded into the pots that were previously flooded with water. The water level is lowered below the soil surface for one week. The pots are flooded just above the soil surface for the duration of the test. The plants are observed at the end of approximately 21 days and the results in terms of percent inhibition recorded. For each test, pots are prepared containing soil treated only with butachlor. For each test, pots are prepared containing soil treated only with the safening agent. Pots are also prepared with untreated soil.

Barnyard Grass [2] = test: Inhibition of barnyard grass by butachlor and safening agent sprayed on soil surface, flooded pots (Example 17, Table III); conditions: ~21 days, mean of two replicates
Protocol: as §1, with “agent” for “agent and butachlor”, “is sprayed on the soil surface. A measured quantity of butachlor herbicide dissolved in a solvent is sprayed on” for “is applied to”, “one week to allow barnyard grass to emerge.” for “one week.”, “prepared containing” for “prepared with”

Barnyard Grass [3] = test: Inhibition of barnyard grass, safening agent and butachlor applied to soil surface, flooded pots (Example 18, Table IV); conditions: ~21 days, mean of two replicates
Protocol: as §1

rice [4] = test: Inhibition of rice by butachlor and safening agent sprayed on soil surface, flooded pots (Example 17, Table III); conditions: ~21 days, mean of two replicates
Protocol: as §1, with “agent” for “agent and butachlor”, “is sprayed on the soil surface. A measured quantity of butachlor herbicide dissolved in a solvent is sprayed on” for “is applied to”, “one week to allow barnyard grass to emerge.” for “one week.”, “prepared containing” for “prepared with”

rice [5] = test: Safening effect against butachlor injury to rice, safening agent and herbicide incorporated in soil (Example 15, Table I); design: key: herbicide-alone + safener-alone effect (max 100) minus combined effect; conditions: safening agent 8.96 kg/h; butachlor 6.72 kg/h; ~21 days
Protocol: (§2) A good grade of top soil is placed in a container and compacted to a depth of approximately 1.27 cm. from the top of said container. A predetermined number of rice seeds to be tested are placed on top of the soil. A quantity of soil sufficient to substantially fill the container is measured and placed in a second container. A measured quantity of the safening agent dispersed or dissolved in a suitable carrier is applied to the soil in the second container. A measured quantity of butachlor dispersed or dissolved in a suitable carrier is then sprayed on the soil already treated with the safening agent. The soil containing the safening agent and herbicide is thoroughly mixed. This mixing is sometimes referred to as incorporation of the herbicide and safening agent into the soil. The mixing or incorporation provides a substantially uniform distribution of the safening agent and herbicide throughout the soil. The seeds are covered with the soil containing the safening agent and herbicide and the pans are leveled. The pans are then placed on a sand bench in the greenhouse and watered from below as needed. The plants are observed at the end of approximately 21 days and the results in terms of percent inhibition of each seed lot are recorded. For each test series a pan of plants is also prepared containing no herbicide and no safening agent as a control. Additionally, for each test, a pan of plants is prepared with soil covering the seed containing no herbicide and only the measured amount of safening agent being incorporated into the soil covering the seeds to ascertain any herbicidal effect of the safening agent alone. For each series of tests the herbicidal effect of the herbicide is observed from pans of plants treated with the same quantity of herbicide alone. The "safening effect" is determined by adding the hericidal effect of the herbicide when applied alone to the herbicidal effect of the safening agent when applied alone (in no instance, however, will this sum be greater than 100) and substracting from that the herbicidal effect obtained when the herbicide and safening agent are incorporated into the soil as discussed above.
Table I summarizes the results obtained when the compounds of the invention were tested in accordance with the procedure of Example 15.

rice [6] = test: Safening effect against butachlor injury to pre-soaked rice, soil surface application, flooded pots (Example 16, Table II); design: key: herbicide injury alone + safener injury alone (max 100) minus combined injury; conditions: safening agent 0.56 kg/h, ~21 days, mean of two replicates
Protocol: as §2
A good grade of top soil is placed in a plastic pot. A measured quantity of the safening agent dispersed or dissolved in a suitable carrier is sprayed on the soil surface. A measured quantity of butachlor herbicide dissolved in a solvent is sprayed on the soil surface. Presoaked rice is seeded into the pots that were previously flooded with water and the water level lowered below the soil surface for one week. The pots are flooded at least up to the soil surface for the duration of the test. The plants are observed at the end of approximately 21 days and the results in terms of the percent inhibition of rice is recorded. As in Example 15, for each test pots are prepared containing soil treated only with butachlor. For each test, pots are also prepared containing soil treated only with the safening agent. Pots are also prepared in which the soil is not treated with either the herbicide or the safening agent. The safening effect is determined in accordance with Example 15.
Table II summarizes the results obtained when the compounds of the invention were tested in accordance with the procedure of Example 16.

rice [7] = test: Percent inhibition of rice, mixture incorporated in soil cover layer (Example 19, Table V); conditions: ~21 days
Excerpt: (§3) 5.08 cm. of a good grade of top soil is placed in a 7.62 cm. deep plastic pot. A predetermined number of weed seeds and rice seeds are applied to the soil surface. Butachlor and ethyl 2-chloro-4-phenyl-5-thiazolecarboxylate are applied to a soil cover layer as a mixture and incorporated by shaking the treated soil cover layer in a plastic bag. The cover layers were then placed on the pre-seeded pots. The plants are observed at the end of approximately 21 days and the results in terms of percent inhibition recorded. For each test, pots are prepared containing soil treated only with butachlor. For each test, pots are prepared containing soil treated only with the safening agent. Pots are also prepared with untreated soil.

Panicum = test: Percent inhibition of panicum, mixture incorporated in soil cover layer (Example 19, Table V); conditions: ~21 days
Excerpt: as §3

Foxtail = test: Percent inhibition of foxtail, mixture incorporated in soil cover layer (Example 19, Table V); conditions: ~21 days
Excerpt: as §3

Barnyard Grass [8] = test: Percent inhibition of barnyard grass, mixture incorporated in soil cover layer (Example 19, Table V); conditions: ~21 days
Excerpt: as §3

Crabgrass = test: Percent inhibition of crabgrass, mixture incorporated in soil cover layer (Example 19, Table V); conditions: ~21 days
Excerpt: as §3

[9] = safening agent 0.07 kg/h + butachlor 0.07 kg/h
[10] = safening agent 0.07 kg/h + butachlor 0.28 kg/h
[11] = safening agent 0.07 kg/h + butachlor 1.12 kg/h
[12] = safening agent 0.28 kg/h + butachlor 0.07 kg/h
[13] = safening agent 0.28 kg/h + butachlor 0.28 kg/h
[14] = safening agent 0.28 kg/h + butachlor 1.12 kg/h
[15] = safening agent 1.12 kg/h + butachlor 0.07 kg/h
[16] = safening agent 1.12 kg/h + butachlor 0.28 kg/h
[17] = safening agent 1.12 kg/h + butachlor 1.12 kg/h

Which results are given for `CCOC(=O)c1sc(Cl)nc1-c1ccc(Cl)cc1` [Example 4, Ethyl 2-Chloro-4-p-Chlorophenyl-5-Thiazolecarboxylate]?
% Inhibition, Rice (rice [1]; [9]): 5%; % Inhibition, Rice (rice [1]; [10]): 63%; % Inhibition, Rice (rice [1]; [11]): 88%; % Inhibition, Rice (rice [1]; [12]): 0%; % Inhibition, Rice (rice [1]; [13]): 30%; % Inhibition, Rice (rice [1]; [14]): 40%; % Inhibition, Rice (rice [1]; [15]): 0%; % Inhibition, Rice (rice [1]; [16]): 30%; % Inhibition, Rice (rice [1]; [17]): 88%; % Inhibition, Rice (rice [1]; safening agent alone 0.07 kg/h): 0%; % Inhibition, Rice (rice [1]; safening agent alone 0.28 kg/h): 0%; % Inhibition, Rice (rice [1]; safening agent alone 1.12 kg/h): 0%; Inhibition, Barnyard Grass (Barnyard Grass [2]; [9]): 99%; Inhibition, Barnyard Grass (Barnyard Grass [2]; [10]): 100%; Inhibition, Barnyard Grass (Barnyard Grass [2]; [11]): 100%; Inhibition, Barnyard Grass (Barnyard Grass [2]; [12]): 99%; Inhibition, Barnyard Grass (Barnyard Grass [2]; [13]): 99%; Inhibition, Barnyard Grass (Barnyard Grass [2]; [14]): 100%; Inhibition, Barnyard Grass (Barnyard Grass [2]; [15]): 99%; Inhibition, Barnyard Grass (Barnyard Grass [2]; [16]): 99%; Inhibition, Barnyard Grass (Barnyard Grass [2]; [17]): 100%; Inhibition, Barnyard Grass (Barnyard Grass [2]; safening agent alone 0.07 kg/h): 0%; Inhibition, Barnyard Grass (Barnyard Grass [2]; safening agent alone 0.28 kg/h): 0%; Inhibition, Barnyard Grass (Barnyard Grass [2]; safening agent alone 1.12 kg/h): 0%; % Inhibition, Barnyard Grass (Barnyard Grass [3]; [9]): 90%; % Inhibition, Barnyard Grass (Barnyard Grass [3]; [10]): 100%; % Inhibition, Barnyard Grass (Barnyard Grass [3]; [11]): 100%; % Inhibition, Barnyard Grass (Barnyard Grass [3]; [12]): 85%; % Inhibition, Barnyard Grass (Barnyard Grass [3]; [13]): 100%; % Inhibition, Barnyard Grass (Barnyard Grass [3]; [14]): 100%; % Inhibition, Barnyard Grass (Barnyard Grass [3]; [15]): 85%; % Inhibition, Barnyard Grass (Barnyard Grass [3]; [16]): 100%; % Inhibition, Barnyard Grass (Barnyard Grass [3]; [17]): 100%; % Inhibition, Barnyard Grass (Barnyard Grass [3]; safening agent alone 0.07 kg/h): 0%; % Inhibition, Barnyard Grass (Barnyard Grass [3]; safening agent alone 0.28 kg/h): 0%; % Inhibition, Barnyard Grass (Barnyard Grass [3]; safening agent alone 1.12 kg/h): 0%; Inhibition, Rice (rice [4]; [9]): 0%; Inhibition, Rice (rice [4]; [10]): 0%; Inhibition, Rice (rice [4]; [11]): 78%; Inhibition, Rice (rice [4]; [12]): 0%; Inhibition, Rice (rice [4]; [13]): 0%; Inhibition, Rice (rice [4]; [14]): 40%; Inhibition, Rice (rice [4]; [15]): 0%; Inhibition, Rice (rice [4]; [16]): 0%; Inhibition, Rice (rice [4]; [17]): 28%; Inhibition, Rice (rice [4]; safening agent alone 0.07 kg/h): 0%; Inhibition, Rice (rice [4]; safening agent alone 0.28 kg/h): 0%; Inhibition, Rice (rice [4]; safening agent alone 1.12 kg/h): 0%; Safening Effect (rice [5]): 85; Safening Effect (rice [6]; butachlor 0.07 kg/h): 30; Safening Effect (rice [6]; butachlor 0.28 kg/h): 70; Safening Effect (rice [6]; butachlor 1.12 kg/h): 32

How did the “% Inhibition, Rice” value (rice [1]; butachlor alone 0.07 kg/h) turn out when `CCCCOCN(C(=O)CCl)c1c(CC)cccc1CC` [butachlor, 2-chloro-2',6'-diethyl-N-(butoxymethyl)acetanilide, reference compound] was run?
Its value is 64%.

And the “% Inhibition, Rice” value (rice [1]; butachlor alone 0.28 kg/h)?
Its value is 78%.

And the “% Inhibition, Rice” value (rice [1]; butachlor alone 1.12 kg/h)?
The value was 100%.

What about the “Percent Inhibition, Rice” value (rice [7]; butachlor alone 2.24 kg/h) of the same molecule?
The value was 50%.

And the “Percent Inhibition, Rice” value (rice [7]; butachlor alone 4.48 kg/h)?
The value was 78%.

What about the “Percent Inhibition, Rice” value (rice [7]; butachlor alone 8.96 kg/h) of the same molecule?
Its value is 93%.

What about the “Inhibition, Barnyard Grass” value (Barnyard Grass [2]; butachlor alone 0.07 kg/h) of the same molecule?
The value was 99%.

What about the “Inhibition, Barnyard Grass” value (Barnyard Grass [2]; butachlor alone 0.28 kg/h) of the same molecule?
Its value is 100%.

And the “Inhibition, Barnyard Grass” value (Barnyard Grass [2]; butachlor alone 1.12 kg/h)?
Its value is 100%.

And the “% Inhibition, Barnyard Grass” value (Barnyard Grass [3]; butachlor alone 0.07 kg/h)?
Its value is 100%.

And the “% Inhibition, Barnyard Grass” value (Barnyard Grass [3]; butachlor alone 0.28 kg/h)?
Its value is 100%.

What about the “% Inhibition, Barnyard Grass” value (Barnyard Grass [3]; butachlor alone 1.12 kg/h) of the same molecule?
Its value is 100%.

What about the “Percent Inhibition, Panicum” value (Panicum; butachlor alone 2.24 kg/h) of the same molecule?
The value was 99%.

And the “Percent Inhibition, Panicum” value (Panicum; butachlor alone 4.48 kg/h)?
The value was 100%.

What about the “Percent Inhibition, Panicum” value (Panicum; butachlor alone 8.96 kg/h) of the same molecule?
Its value is 100%.

What about the “Inhibition, Rice” value (rice [4]; butachlor alone 0.07 kg/h) of the same molecule?
Its value is 31%.

And the “Inhibition, Rice” value (rice [4]; butachlor alone 0.28 kg/h)?
Its value is 74%.

And the “Inhibition, Rice” value (rice [4]; butachlor alone 1.12 kg/h)?
Its value is 98%.

And the “Percent Inhibition, Foxtail” value (Foxtail; butachlor alone 2.24 kg/h)?
The value was 100%.

What about the “Percent Inhibition, Foxtail” value (Foxtail; butachlor alone 4.48 kg/h) of the same molecule?
The value was 100%.

What about the “Percent Inhibition, Foxtail” value (Foxtail; butachlor alone 8.96 kg/h) of the same molecule?
The value was 100%.

And the “Percent Inhibition, Barnyard Grass” value (Barnyard Grass [8]; butachlor alone 2.24 kg/h)?
The value was 100%.

And the “Percent Inhibition, Barnyard Grass” value (Barnyard Grass [8]; butachlor alone 4.48 kg/h)?
Its value is 100%.

And the “Percent Inhibition, Barnyard Grass” value (Barnyard Grass [8]; butachlor alone 8.96 kg/h)?
The value was 100%.

What about the “Percent Inhibition, Crabgrass” value (Crabgrass; butachlor alone 2.24 kg/h) of the same molecule?
Its value is 100%.

And the “Percent Inhibition, Crabgrass” value (Crabgrass; butachlor alone 4.48 kg/h)?
Its value is 100%.

And the “Percent Inhibition, Crabgrass” value (Crabgrass; butachlor alone 8.96 kg/h)?
The value was 100%.
